Measurements taken from patent publication US20100075893A1, “PREPARATION OF A PHARMACEUTICAL COMPOSITION FOR INCREASING BONE MINERAL DENSITY” (priority 2008, published 2010).
Positions of bridges follow the written chain, without caps; N, C: chain ends. No end group written: not given here.

Assays:
C57B1/6J females [1] = assay: Bone mineral density increase in mice by slow release CART treatment (in vivo micro-CT, distal femur)
Procedure: In this experiment mice were treated with 3 different concentrations of CART peptide. The experiment was conducted in 12 weeks old C57B1/6J females and consisted of four experimental groups (n=5 per group). The first group of mice received placebo slow release pellets (SX-999, 60 day slow release pellets, Innovative Research of America, Sarasota, Fla.). The other three groups were treated with SX-999 slow release pellets containing either 20 μg, 50 μg or 100 μg (2×50 μg) rat CART 55-102 peptide (rCART) (Phoenix Pharmaceuticals, Inc. Belmont, Calif.). Mice were sedated with injection anaesthetics (Hypnorm (VetaPharma, Leeds, UK)/Dormicum (Roche, Mijdrecht, The Netherlands)) and the pellets were implanted subcutaneously in the neck. Bone architecture and density was determined at the distal femur at T=0 by an in vivo micro-CT measurement (Skyscan1076 micro-CT scanner, Skyscan, Kontich, Belgium). Scans were performed at 9 μm resolution. Trabecular bone analysis was performed on a 2 mm slice 150 μm proximal to the distal growth plate of the femur. In vivo micro-CT measurements were repeated at day 28 and day 60. The BMD value of the placebo group at T=0, T=28 and T=60 days was set at 100% and the BMD values of the 20 μg, 50 μg and 100 μg (2×50 μg) CART treated groups were calculated relatively to the placebo group. Values are expressed as mean±SD of the individual data. For statistical analysis the treatment groups were compared with the placebo group of the corresponding time point in a standard Student T-test (two-tailed). P<0.05 was considered as significant.

C57B1/6J females [2] = assay: CART slow release formulation vs. daily CART injections, bone mineral density in mice (in vivo micro-CT, distal femur); details: daily s.c. injections of 2 μg in 0.9% NaCl, 30 days
Procedure: In this experiment the effectiveness of CART peptide to improve bone mineral density via a slow release formulation was compared with daily injections of CART. The experiment was conducted in 12 weeks old C57B1/6J females and consisted of four experimental groups (n=5 per group). In the first group of mice 2 placebo slow release pellets (SX-999, 60 day pellets, Innovative Research of America, Sarasota, Fla.) were implanted subcutaneously in the neck. In the second group 2 SX-999 slow release pellets containing 50 μg rat CART55-102 (Phoenix Pharmaceuticals, Inc. Belmont, Calif.) each, were implanted subcutaneously in the neck. The other two groups received daily s.c. injections with either vehicle (0.9% NaCl) or with 2 μg rat CART55-102 peptide in 0.9% NaCl. Mice were sedated with injection anaesthetics (Hypnorm (VetaPharma, Leeds, UK)/Dormicum (Roche, Mijdrecht, The Netherlands)) and bone density was determined in the distal femur by an in vivo micro-CT measurement (Skyscan1076 micro CT scanner, Skyscan, Belgium) at T=0 and at T=30 days. Blood was collected weekly by orbita puncture to determine serum CART levels. BMD (g/cm^3) was expressed as mean±SD of the individual data. Statistical analysis was performed using the Student T-test (two-tailed). P<0.05 was considered as significant.

bovine granulosa cells = assay: CART induced suppression of FSH-induced 17β-estradiol production in bovine granulosa cells; format: cell-based; details: 1 μM CART peptide, 7 days culture
Procedure: Ovaries from double muscled cows were obtained at a local abattoir and granulosa cells were collected from 3- to 5-mm follicles at random stages of the estrus cycle. Follicles were placed in culture medium (M505 medium (Gibco Invitrogen, Carlsbad, Calif., USA) supplemented with antibiotics (100 IU/ml penicillin and 0.1 mg/ml streptomycin (Invitrogen, Carlsbad, Calif., USA), 10 ng/mL insulin (Schering-Plough, Oss, The Netherlands), 4 ng/mL sodium selenite (Sigma Aldrich, St. Louis, Mo., USA), 5 μg/mL apo-transferrin (Sigma Aldrich, St. Louis, Mo., USA) and 10^−7M androstenedione (Org 6, Schering-Plough, Oss, The Netherlands)) at 37° C. Follicles were ruptured with a needle and the cells were passed through a cell strainer (70 μm nylon, Becton Dickinson, Bedford, USA). Cells were centrifuged for 10 min at 340×g and resuspended in culture medium. Cells (1×10^5 viable cells/well) were cultured in 96 wells plate for 7 days at 37° C. in a humidified atmosphere (5% CO2, 95% air) in the presence of 0, 20, 100 or 300 mUnits FSH (Org 32489, Schering-Plough, Oss, The Netherlands) in combination with […], 10^−7, […], 10^−9, 10^−10, 10^−11 or 10^−12M rat CART 55-102 (Phoenix Pharmaceuticals Inc., Belmont, Calif., USA). […] After 7 days 17β-estradiol levels were determined in the culture medium using a 17β-estradiol ELISA (Diagnostic Systems Laboratories Inc., Marburg, Germany).

Question: How did the “increase in trabecular bone mineral density (BMD) as compared to the placebo group” value (“increase … to the placebo group” for short) (C57B1/6J females [1]; 50 μg rCART in SX-999 slow release pellet s.c., after 60 days) turn out when “Ile-Pro-Ile-Tyr-Glu-Lys-Lys-Tyr-Gly-Gln-Val-Pro-Met-Cys-Asp-Ala-Gly-Glu-Gln-Cys-Ala-Val-Arg-Lys-Gly-Ala-Arg-Ile-Gly-Lys-Leu-Cys-Asp-Cys-Pro-Arg-Gly-Thr-Ser-Cys-Asn-Ser-Phe-Leu-Leu-Lys-Cys-Leu (IPIYEKKYGQVPMCDAGEQCAVRKGARIGKLCDCPRGTSCNSFLLKCL; disulfide 14-32, 20-40, 34-47; ends not checked) [rat CART 55-102, rat CART 55-102 peptide (rCART) (Phoenix Pharmaceuticals, Inc.)]” was run?
Answer: Its value is 40-50%.

Question: And the “increase … to the placebo group” value (C57B1/6J females [1]; 100 μg (2×50 μg) rCART in SX-999 slow release pellets s.c., after 28 days)?
Answer: The value was 50-60%.

Question: What about the “increase … to the placebo group” value (C57B1/6J females [1]; 100 μg (2×50 μg) rCART in SX-999 slow release pellets s.c., after 28 days, listed as CART peptide) of the same substance?
Answer: Its value is 50%.

Question: And the “increase … to the placebo group” value (C57B1/6J females [1]; 100 μg (2×50 μg) rCART in SX-999 slow release pellets s.c., after 60 days)?
Answer: Its value is 80%.

Question: What about the “increase in BMD” value (C57B1/6J females [2]) of the same substance?
Answer: The value was “did not show an increase in BMD”.

Question: And the “suppression of FSH-induced 17β-estradiol production” value (bovine granulosa cells; 100 mUnits FSH)?
Answer: Its value is 1.5 fold.

Question: And the “suppression of FSH-induced 17β-estradiol production” value (bovine granulosa cells; 300 mUnits FSH)?
Answer: Its value is 3 fold.
